“Also recorded” adds a separate entry of the source. Read-outs that look alike come from different tables or passages of the source.
Key:
[1] = tablet form; ref [25]; cited from earlier work
[2] = Plasma pharmacokinetics; format: in vivo, human
[3] = test system: relapsed or refractory multiple myeloma; test: Treatment response by IMWG criteria, phase 1/2 trial; format: in vivo, human; conditions: single-agent ricolinostat
[4] = test system: acetylated histones (a substrate of class I HDACs); test: Acetylated histones in CD3+ peripheral blood lymphocytes; format: in vivo, human; conditions: 1 hour after first dose
[5] = test system: patients with relapsed or refractory multiple myeloma
[6] = test system: acetylated tubulin (a substrate of HDAC6); conditions: for change in acetylated tubulin: 1 hour after first dose
[7] = initial 160 mg daily oral dose, cohort 4′, n=14, mean ± SD
[8] = single agent ricolinostat 160 mg
[9] = single agent ricolinostat 240 mg
[10] = single agent ricolinostat, N=15
[11] = single-agent ricolinostat, 15 patients

## O=C(CCCCCCNC(=O)c1cnc(N(c2ccccc2)c2ccccc2Cl)nc1)NO [ACY-241]
[1]
  exposure plateau: does not exhibit the exposure plateau

## CC(C)C[C@H](NC(=O)[C@H](Cc1ccccc1)NC(=O)c1cnccn1)B(O)O [bortezomib, reference compound]
[2]; after i.v. injection, days 1 and 11, with few exceptions
  time of observed Cmax of bortezomib (first plasma sample): 15 min
[2]; human, plasma, mean Cmax of bortezomib, day 1 dose, cohort 4′ ([…]^2 with ricolinostat 160 mg QD), n=14
  Cmax: 24 ± 11 ng/mL
[2]; human, plasma, mean Cmax of bortezomib, day 11 dose, cohort 4′ ([…]^2 with ricolinostat 160 mg QD), n=11
  Cmax: 40 ± 15 ng/mL

## O=C(CCCCCCNC(=O)c1cnc(N(c2ccccc2)c2ccccc2)nc1)NO [ricolinostat]
[3]; 6 patients, range 5 – 30
  duration of stable disease, median: 11 weeks
[3]; 15 patients
  clinical response (minor or partial response): nor clinical responses; also recorded: no patients had a minor or partial response
[3]; of the 15 patients
  patients with stable disease: 6
[2]; bid dosing
  drug accumulation upon repeated dosing: 1.01 ± 0.26
[2]; human, plasma, oral, mean Cmax on day 11, bid administration, n=10
  Cmax: 524 ± 150 ng/mL
[2]; human, plasma, oral, mean Cmax on day 11, qd dosing, n=11
  Cmax: 648 ± 200 ng/mL
[2]; human, plasma, po, 160 mg
  half-life: 3.26 ± 0.46 h
[2]; [7]
  apparent oral clearance: 111 ± 25 L/h
  apparent oral total body volume of distribution: 521 ± 166 L
[2]; oral 40 to 360 mg, alone or with bortezomib
  dose dependence of exposure (Cmax): plateau in exposure at dose levels ≥160 mg; also recorded: no significant increase at doses greater than 160 mg
[2]; oral, initial dose and dose on day 11, range 0.25–2.0 hours
  median time of maximum observed concentration in plasma (Cmax): 1.0 h
[2]; qd dosing
  drug accumulation upon repeated dosing: 1.10 ± 0.20
[4]; [8]
  change in histone acetylation: unchanged
[4]; [9]
  change in histone acetylation: qualitative increase
[5]; single agent ricolinostat therapy
  toxicity, overall: neither significant toxicity
[5]; [10]
  Amylase elevation, All grades: 0 (0) N (%)
  Amylase elevation, Grade 3/4: 0 (0) N (%)
  Anemia, All grades: 3 (20) N (%)
  Anemia, Grade 3/4: 1 (7) N (%)
  Blood creatinine elevation, All grades: 5 (33) N (%)
  Blood creatinine elevation, Grade 3/4: 0 (0) N (%)
  Bronchitis, All grades: 0 (0) N (%)
  Bronchitis, Grade 3/4: 0 (0) N (%)
  Diarrhea, All grades: 3 (20) N (%)
  Dyspnea, All grades: 1 (7) N (%)
  Dyspnea, Grade 3/4: 0 (0) N (%)
  Fatigue, All grades: 4 (27) N (%)
  Febrile neutropenia, All grades: 0 (0) N (%)
  Febrile neutropenia, Grade 3/4: 0 (0) N (%)
  Hyperglycemia, All grades: 0 (0) N (%)
  Hyperglycemia, Grade 3/4: 0 (0) N (%)
  Hypertension, All grades: 0 (0) N (%)
  Hypertension, Grade 3/4: 0 (0) N (%)
  Hypokalemia, All grades: 1 (7) N (%)
  Hypokalemia, Grade 3/4: 0 (0) N (%)
  Hyponatremia, All grades: 1 (7) N (%)
  Hyponatremia, Grade 3/4: 0 (0) N (%)
  Hypophosphatemia, All grades: 2 (13) N (%)
  Hypophosphatemia, Grade 3/4: 1 (7) N (%)
  Influenza, All grades: 0 (0) N (%)
  Influenza, Grade 3/4: 0 (0) N (%)
  Nausea, All grades: 2 (13) N (%)
  Nausea, Grade 3/4: 0 (0) N (%)
  Neutropenia, All grades: 2 (13) N (%)
  Neutropenia, Grade 3/4: 1 (7) N (%)
  Peripheral neuropathy, All grades: 0 (0) N (%)
  Peripheral neuropathy, Grade 3/4: 0 (0) N (%)
  Pneumonia, All grades: 0 (0) N (%)
  Pneumonia, Grade 3/4: 0 (0) N (%)
  Pulmonary embolism, All grades: 0 (0) N (%)
  Pulmonary embolism, Grade 3/4: 0 (0) N (%)
  Thrombocytopenia, All grades: 2 (13) N (%)
  Thrombocytopenia, Grade 3/4: 2 (13) N (%)
  Transaminase elevation, All grades: 1 (7) N (%)
  Transaminase elevation, Grade 3/4: 0 (0) N (%)
  Vomiting, All grades: 0 (0) N (%)
  Vomiting, Grade 3/4: 0 (0) N (%)
[5]; single-agent dose escalation, 40-360 mg daily
  dose limiting toxicities: did not observe any dose limiting toxicities
[5]; single-agent dose escalation, up to 360 mg qd
  maximum tolerated dose: did not identify a maximum tolerated dose
[5]; single-agent ricolinostat
  QT interval prolongation, serial triplicate electrocardiograms: no evidence of QT interval prolongation
  discontinuation because of a treatment emergent adverse event: No patient discontinued
[5]; [11]
  adverse events observed during therapy: anemia: 20%
  adverse events observed during therapy: diarrhea: 20%
  adverse events observed during therapy: fatigue: 27%
  adverse events observed during therapy: renal insufficiency: 33%
[6]; samples taken during therapy
  acetylated tubulin in peripheral blood lymphocytes, dose dependence: dose-dependent increases
[6]; [8]
  change in acetylated tubulin: increase
[6]; [9]
  change in acetylated tubulin: upward trend
